Experimental data taken from PubChem BioAssay (NCI).
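Following 48 hours of exposure in 96-well plates, responses at five concentrations were used to interpolate endpoints linearly. Here, GI50 denotes the concentration required for 50% inhibition of growth. Definition used: TGI = concentration required for complete inhibition of growth.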

How the values were obtained:
Assay in all cases: inhibition of tumour cell growth, NCI panel, 48 h
HT29 colon = tested on: HT29 colon
HOP-62 NSCLC = tested on: HOP-62 NSCLC
786-0 renal = tested on: 786-0 renal
SN12C renal = tested on: SN12C renal
TK-10 renal = tested on: TK-10 renal
U251 CNS = tested on: U251 CNS
SF-295 CNS = tested on: SF-295 CNS
SK-OV-3 ovarian = tested on: SK-OV-3 ovarian
NCI/ADR-RES ovarian = tested on: NCI/ADR-RES ovarian
MDA-MB-435 = tested on: MDA-MB-435

Compound	TGI (HT29 colon)	TGI (HOP-62 NSCLC)	TGI (786-0 renal)	TGI (SN12C renal)	TGI (TK-10 renal)	TGI (U251 CNS)	TGI (SF-295 CNS)	TGI (SK-OV-3 ovarian)	TGI (NCI/ADR-RES ovarian)	GI50 (HT29 colon)	GI50 (HOP-62 NSCLC)	GI50 (786-0 renal)	GI50 (MDA-MB-435)	TGI (MDA-MB-435)	GI50 (SN12C renal)	GI50 (TK-10 renal)	GI50 (NCI/ADR-RES ovarian)	GI50 (U251 CNS)	GI50 (SK-OV-3 ovarian)	GI50 (SF-295 CNS)
COc1ccc2c(c1)CCc1c-2n[nH]c1-c1[nH]nc2c1CCc1cc(OC)ccc1-2	> 100 µM	56.3 µM	41.1 µM	> 100 µM	> 100 µM	> 100 µM	39.5 µM	> 100 µM												
COCCNc1cncc(C(N)=O)c1	> 100 µM	> 100 µM	> 100 µM	> 100 µM	> 100 µM	> 100 µM	> 100 µM	> 100 µM	> 100 µM											
C[C@H]1C=C2C(=O)O[C@H]3CC[C@@H](C1)[C@@]23O	16.9 µM		12.2 µM	6.76 µM	8 µM	19.5 µM	16.4 µM	22.4 µM												
O=C(/C=C/C12c3ccccc3C(c3ccccc31)C1C(=O)NC(=O)C12)c1ccccc1 (stereo unspecified)	11.9 µM	4.38 µM	3.1 µM	6.91 µM	6.34 µM	2.96 µM		5.2 µM	5.73 µM	3.25 µM	2.17 µM	1.7 µM	2.16 µM	5.9 µM	2.29 µM	2.79 µM	1.92 µM	1.55 µM	2.37 µM	
CCOC(=O)C1=C(C)NC(c2ccco2)=C(C#N)C1c1cccc([N+](=O)[O-])c1 (stereo unspecified)	0.562 µM	17.2 µM	13.5 µM	19.7 µM	49.4 µM	0.059 µM		70.9 µM	0.356 µM	0.01 µM	0.0174 µM	0.0104 µM			0.0465 µM	3.06 µM		0.0134 µM	0.738 µM	
CC(=O)NN1C(=O)C(Cc2ccccc2)c2ccccc21 (stereo unspecified)	> 100 µM	> 100 µM	> 100 µM	> 100 µM	> 100 µM	> 100 µM	> 100 µM	> 100 µM												
CCN(Cc1c(F)cccc1Cl)c1ccc(CO)c(Cl)c1	16 µM	18.3 µM	30.1 µM	25 µM		16.6 µM	15.7 µM	13 µM	28.7 µM	0.668 µM	0.174 µM	14.9 µM	10.9 µM	24.3 µM	11.9 µM		10.4 µM		2.52 µM	0.178 µM
COc1cc(/C=C2\CCCC3=C2N=C2SC(C)=NN2C3c2cc(OC)c(OC)c(OC)c2)cc(OC)c1OC (stereo unspecified)		> 100 µM	> 100 µM		> 100 µM			> 100 µM			> 100 µM	> 100 µM	0.341 µM	> 100 µM		> 100 µM			> 100 µM	
Nc1c2ccccc2nc2c(C(=O)Nc3ccc(S(N)(=O)=O)cc3)cccc12	> 100 µM	> 100 µM	> 100 µM	> 100 µM	> 100 µM	> 100 µM	> 100 µM	> 100 µM												
CCOC(=O)/C=C/c1cccc(F)c1	> 100 µM	> 100 µM	> 100 µM	> 100 µM	> 100 µM	> 100 µM			> 100 µM					> 100 µM						
CCCCN(CCCC)CC(C(C)=O)C(c1ccccc1)c1c(O)c2ccccc2oc1=O (stereo unspecified)	> 100 µM	> 100 µM	> 100 µM	> 100 µM	> 100 µM	> 100 µM	> 100 µM	> 100 µM												
COc1ccc(OC(C)C(=O)O)c2c(=O)ccccc12 (stereo unspecified)	> 100 µM	> 100 µM	> 100 µM	> 100 µM	> 100 µM	> 100 µM	> 100 µM	> 100 µM												
CC(=O)Oc1ccc2c(c1)C(=O)c1nc(C)c(C)nc1C2=O	> 91.7 µM	> 100 µM	> 96.5 µM	> 100 µM	> 100 µM	> 100 µM	> 100 µM	> 100 µM												
CC1c2[nH]c3ccccc3c2CCN1O (stereo unspecified)	> 100 µM		> 100 µM	> 100 µM	> 100 µM	> 100 µM	> 100 µM	> 100 µM												
C=C1C[C@@H]2C[C@@H](C)CC(O)[C@]2(CCCN)C1O (stereo partly specified)	> 100 µM	> 100 µM	> 100 µM	> 100 µM	> 100 µM	> 100 µM	> 100 µM	> 100 µM												
COC(C)C(O)(C(=O)OCC1=CCN2CCC(O)C12)C(C)(C)O (stereo unspecified)	> 100 µM		> 100 µM	> 100 µM	> 100 µM	> 100 µM	> 100 µM	> 100 µM	> 100 µM					> 100 µM						
c1ccc(OC2=NC3=S(S2)SC(Oc2ccccc2)=N3)cc1	40.2 µM	67.1 µM	30.6 µM	40.8 µM	33 µM	26.8 µM	39 µM	65.2 µM												
COC(=O)N[C@H]1CCc2c(Cl)c(OC)c(OC)c(OC)c2-c2ccc(SC)c(=O)cc21	> 94.8 µM	> 100 µM	> 36.9 µM	> 43.9 µM	> 100 µM	> 40.5 µM		> 100 µM	0.509 µM	< 0.01 µM	< 0.01 µM	< 0.01 µM	< 0.01 µM	< 0.01 µM	< 0.01 µM	15.8 µM	0.0155 µM	< 0.01 µM	< 0.01 µM	
CC(=O)[O-].N.N.N.N.[Co+3].[O-][Cl+3]([O-])([O-])[O-].[OH3+]	> 100 µM	> 100 µM	> 100 µM	> 100 µM	> 100 µM	> 100 µM	> 100 µM	> 100 µM		> 100 µM	> 100 µM	> 100 µM			> 100 µM	> 100 µM		> 100 µM	> 100 µM	> 100 µM
COc1ccc([C@@H]2OC(=O)C3C2C(=O)O[C@H]3c2ccc(OC)c(OC)c2)cc1OC (stereo partly specified)	> 100 µM	> 100 µM	> 100 µM	> 100 µM	> 100 µM	> 100 µM	> 100 µM	> 100 µM												
